Molecular target: T1, Renin (Homo sapiens, UniProt P00797)
T1 sequence (P00797 whole entry): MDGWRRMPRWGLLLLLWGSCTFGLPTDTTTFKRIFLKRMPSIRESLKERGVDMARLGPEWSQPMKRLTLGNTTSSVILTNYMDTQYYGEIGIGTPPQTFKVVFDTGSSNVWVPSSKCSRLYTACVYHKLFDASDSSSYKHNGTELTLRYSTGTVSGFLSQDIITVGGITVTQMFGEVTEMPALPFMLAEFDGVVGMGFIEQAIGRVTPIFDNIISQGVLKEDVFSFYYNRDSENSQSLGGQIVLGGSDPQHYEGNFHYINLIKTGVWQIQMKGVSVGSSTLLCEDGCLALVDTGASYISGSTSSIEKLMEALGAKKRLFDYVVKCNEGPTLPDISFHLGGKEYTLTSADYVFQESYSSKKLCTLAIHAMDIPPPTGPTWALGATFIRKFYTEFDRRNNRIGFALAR
Assay: Binding affinity towards human renin was determined

| Structure (SMILES) | IC50 |
| --- | --- |
| CCCCNC(=O)[C@H](C)C[C@H](O)[C@@H]1C[C@@H](C)[C@@H](c2ccccc2)N1C(=O)OCc1ccccc1 | > 100 µM |
| CCCCNC(=O)[C@H](C)C[C@H](O)[C@H](C[C@@H](C)Cc1ccccc1)NC(=O)OC(C)(C)C | > 100 µM |
| CCCCNC(=O)[C@H](C)C[C@H](O)C1C[C@@H](C)[C@@H](c2ccccc2)N1C(=O)OC(C)(C)C (some centres undefined) | > 100 µM |
| CCCCNC(=O)[C@H](C)C[C@H](O)[C@@H](N)C[C@@H](C)Cc1ccccc1 | 37 µM |

From ChEMBL document CHEMBL1127931, “Design and synthesis of a prototypical non-peptidic inhibitor model for the enzme renin” (Bioorg Med Chem Lett, 1994)
